{Puro} = puromycin of the RNA

The source of these data is patent publication US20040265984A1, “Methods of growing crystals of free, antibiotic-complexed, and substrate-complexed large ribosomal subunits, and methods of rationally designing or identifying antibiotics using structure coordinate data derived from such crystals” (priority 2001, published 2004).

Data set [1] deals with ribosomes. The note with it: cited from earlier work.
For the next data set, the system named is E. coli. The following applies: U/U at 23S rRNA positions C803DR/C1773DR; cited from earlier work.
A further data set concerns Heliobacter pylori. The note with it: Heliobacter pylori (U/U); cited from earlier work.
Another data set has as its system Haemophilus influenzae. The note with it: Haemophilus influenzae (A/C); cited from earlier work.
In a further data set the test system is D50S. As to the kind of experiment: X-ray crystallography of D50S-ligand complex crystals (co-crystallization or soaking). The class given is binding, D. radiodurans. The following applies: result in words, from complex crystals and electron-density maps. On the procedure: Growth of D50S crystals: D. radiodurans LRSs were isolated, and crystals of D50S belonging to the space-group […] were grown as described in Example 1, above. Co-crystallization of D50S with antibiotics was carried out in the presence of 0.8-3.5 mM of the antibiotics chloramphenicol, clindamycin, erythromycin, and roxithromycin. Co-crystallization of D50S with clarithromycin was achieved by soaking D50S crystals in solutions containing 0.01 mM of this antibiotic.
X-ray diffraction: Data were collected at 85 K from shock-frozen crystals with a bright SR beam at ID19 at APS/ANL, ID14/2 and 4 at ESRF/EMBL, and at BW6 at DESY. Data were recorded on MAR345, Quantum 4, or APS-CCD detectors and processed with HKL2000 (Otwinowski, Z. and Minor, W., 1997. Macromolecular Crystallography, Pt A 276, 307).
Placements and refinement: The 3.1 Å structure of D50S described in Example 1, above, was refined against the structure factor amplitudes of each of the antibiotic-D50S complexes, using rigid body refinement as implemented in CNS (Brunger, A. T. et al., 1998. Acta Crystallographica Section D-Biological Crystallography 54, 905). SigmaA-weighted difference maps were used for the initial manual placement of the antibiotics. Each of the D50S-antibiotic models was further refined using REFMAC software (Murshudov, G. N. et al., 1999. Acta Cryst section D55, 247). For the calculation of free R-factor a subset of reflections (10% of the data) was omitted from the refinement. The structure coordinates of the antibiotic-D50S complexes were submitted to the PDB under accession numbers 1JZX, 1JZY, 1JZZ, 1K00, and 1K01.
Crystallization: Crystals of the large ribosomal subunit of D. radiodurans (D50S) were generated as described in Example 1 above (Harms J. et al., 2001. Cell 107, 679-688; Schlüenzen et al., 2001. Nature 413, 814-821). […]
X-ray diffraction: Data were collected at 85 K from shock-frozen crystals using a synchrotron radiation beam at ID 19 at Argonne Photon Source/Argonne National Laboratory (APS/ANL) and ID14/2, ID14/4 at the European Synchrotron Radiation Facility/European Molecular Biology Laboratory (ESRF/EMBL). Data were recorded on Quantum 4 or APS-CCD detectors and processed with HKL2000 (Otwinowski, Z. and Minor, W., 1997. Macromolecular Crystallography Pt A. 276, 307) and the CCP4 suite (Bailey, S., 1994. Acta Cryst D. 50, 760).
Localization and refinement: The 3.1 Å structure of D50S (PDB accession code 1LNR) was refined against the structure factor amplitudes of each of the two D50S-antibiotic complexes, using rigid body refinement as implemented in CNS (Brunger, A. T. et al., 1998. Acta Crystallographica Section D-Biological Crystallography 54, 905-921). […] The positions of the antibiotics were readily determined from sigmaA-weighted difference maps. […]

Data set [2] has as its system ribosomes. The following applies: cited from earlier work; for binding to the ribosome: result in words.

Regarding `CC[C@H]1OC(=O)[C@H](C)[C@@H](O[C@H]2C[C@@](C)(OC)[C@@H](O)[C@H](C)O2)[C@H](C)[C@@H](O[C@@H]2O[C@H](C)C[C@H](N(C)C)[C@H]2O)[C@](C)(O)C[C@@H](C)C(=O)[C@H](C)[C@@H](O)[C@]1(C)O` [erythromycin], the “length of peptides produced by erythromycin-bound ribosomes” value in the data set with ribosomes [1] is “up to 8 residues”.
As to `CC[C@H]1OC(=O)[C@H](C)C(=O)[C@H](C)[C@@H](O[C@@H]2O[C@H](C)C[C@H](N(C)C)[C@H]2O)[C@](C)(OCC=Cc2cnc3ccccc3c2)C[C@@H](C)C(=O)[C@H](C)[C@H]2NC(=O)O[C@@]21C` [ABT-773], the “susceptibility to ABT-773” value with E. coli, in the data set with Heliobacter pylori and in the data set with Haemophilus influenzae was “equally susceptible” each time. Besides, in the data set on D50S, the “binding to D50S” value was “high affinity”.
Consider `COc1ccc(C[C@H](N)C(=O)N[C@H]2[C@@H](O)[C@H](n3cnc4c(N(C)C)ncnc43)O[C@@H]2CO)cc1` [Puromycin], for which the “binding to the ribosome” value in the data set with ribosomes [2] is recorded as “binds weakly”.
As to “ACCP: puromycin-coupled RNA molecule having the sequence 5′-ACC-Puro; substrate analog mimicking the CCA 3′ end of the tRNA acceptor stem (RNA, 3' {Puro}, backbone not given here)”, in the data set on D50S, the “binding to D50S” value is reported as “bind well”.
For the compound `CSC[S@+]([O-])C[C@H](CO)NC(=O)/C=C/c1c(C)[nH]c(=O)[nH]c1=O` [sparsomycin], the “binding to the ribosome” value with ribosomes [2] is given as “weak binding”. In the data set with D50S, the “binding to D50S” value is reported as “almost quantitative binding”.
In the case of `CC[C@H]1OC(=O)[C@H](C)C(=O)[C@H](C)[C@@H](O[C@@H]2O[C@H](C)C[C@H](N(C)C)[C@H]2O)[C@](C)(OC)C[C@@H](C)C(=O)[C@H](C)[C@@H](O)[C@]1(C)O` [RU56006], the Kd entry at ribosomes [2] (compared with erythromycin) is “same order of magnitude as that of erythromycin”.
For the compound `CC[C@H]1OC(=O)[C@H](C)[C@@H](O[C@H]2C[C@@](C)(OC)[C@@H](O)[C@H](C)O2)[C@H](C)[C@@H](O[C@@H]2O[C@H](C)C[C@H](N(C)C)[C@H]2O)[C@](C)(O)C[C@@H](C)CN(C)[C@H](C)[C@@H](O)[C@]1(C)O` [azithromycin, 9-deoxy-9A-methyl-9A-aza-9A-homoerythromycin], in the data set with D50S, the “binding to D50S” value is “high affinity”.
